Assay: ABTS initial absorbance (A436) reduction rate (Test Example 3)
Assay type: physicochemical
Conditions: in one minute at 25° C.; 1 mM (single compound) or 0.011 g nitrogen element in 100 mL (composition); pH 8.5
Source text: In the present specification, the absorbance of a solution containing ABTS (ABTS solution), at a wavelength of 436 nm, is defined as an ABTS initial absorbance (A436). In the present specification, the ABTS initial absorbance (A436) reduction rate (%) of the activity improving agent is defined to be a reduction rate (%) of the absorbance of a mixed solution, which contains the above ABTS solution and the above activity improving agent, at a wavelength of 436 nm in one minute, with respect to the ABTS initial absorbance (A436) (100%). Note that the ABTS solution is a solution in which the concentration of ABTS is adjusted such that the absorbance (A436) at a wavelength of 436 nm is approximately 1.3 at an optical path length of 1.0 cm. The value “approximately 1.3” here is intended to mean a value in a range in which 1.3 is obtained by rounding the value to the first decimal place. Test Examples described later will explain specific methods for measuring the absorbance (A436) of the ABTS solution at a wavelength of 436 nm and the ABTS initial absorbance (A436) reduction rate (%) of the activity improving agent. ABTS is an abbreviation for 2,2′-azinobis(3-ethylbenzothiazoline-6-sulfonic acid).
In the present activity improving method, when the ABTS initial absorbance (A436) reduction rate (%) of the activity improving agent is measured, the concentration of the activity improving agent in the ABTS solution for measurement is set as follows: (a) the concentration is set to 1 mM, when the molecular weight of the activity improving agent is evident as in a case where the activity improving agent is made of a single compound; and (b) when the activity improving agent is a substance which is made of a composition having an inevident molecular weight, the content of nitrogen element is used as a reference and the concentration is set such that the content of nitrogen element derived from the activity improving agent is 0.011 g in 100 mL of the ABTS solution for measurement. Note that, in the above (b), the content of nitrogen element derived from the activity improving agent in the ABTS solution is a value calculated by the Kjeldahl method.
The following describes a specific evaluation method. ABTS employed was an ABTS manufactured by Roche Diagnostics K.K. Further, the ABTS was dissolved in a 50 mM glycine-KOH (pH 8.5) buffer so that the concentration of the ABTS became 2.0 mg/mL. An ABTS solution was thus prepared. The absorbance of the ABTS solution at a wavelength of 436 nm (ABTS initial absorbance (A436)) was measured at an optical path length of 1.0 cm, by using a molecular absorption spectrometer Spectra Max Plus 384 (manufactured by Molecular Devices Japan K.K.). As a result the absorbance was approximately 1.3. Next, 5 μL of an activity improving agent solution or a comparative substance solution was added to 195 μL of the ABTS solution, so that a reaction solution for evaluating ABTS (hereinafter, also referred to as “reaction solution A”) was prepared. […]

| SMILES | A436 reduction rate (%) |
| --- | --- |
| O=C1O[C@H]([C@@H](O)CO)C(O)=C1O [L-ascorbic acid] | 87.81 |
| O=c1[nH]c(=O)c2[nH]c(=O)[nH]c2[nH]1 [Uric acid, uric acid] | 71.49 |
